# Laboratory results as given in ChEMBL document CHEMBL1201862, “PubChem BioAssay data set” (2004).
#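 Following 48 hours of exposure in 96-well plates, responses at five concentrations were used to interpolate endpoints linearly. At the GI50, growth is halved.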 Active and inactive are the calls of the source. Cut-off read from the data, not from the text of the source: active = GI50 up to about 1.1 µM and inactive = higher.
# What was measured:
# Experiment in all cases: inhibition of tumour cell growth, NCI panel, 48 h
# CAKI-1 = test system: CAKI-1
# SW-620 = test system: SW-620
# HOP-62 = test system: HOP-62
# RPMI-8226 = test system: RPMI-8226
# SN12C = test system: SN12C
# NCI-H460 = test system: NCI-H460
# HOP-92 = test system: HOP-92
# RXF 393 = test system: RXF 393
# Hs-578T = test system: Hs-578T
# HT-29 = test system: HT-29
# OVCAR-8 = test system: OVCAR-8
# MOLT-4 = test system: MOLT-4
# SK-MEL-5 = test system: SK-MEL-5
# ACHN = test system: ACHN
# SF-539 = test system: SF-539
# A549 = test system: A549
# U-251 = test system: U-251
# IGROV-1 = test system: IGROV-1
# SR = test system: SR
Compound,GI50 (CAKI-1),GI50 (SW-620),GI50 (HOP-62),GI50 (RPMI-8226),GI50 (SN12C),GI50 (NCI-H460),GI50 (HOP-92),GI50 (RXF 393),GI50 (Hs-578T),GI50 (HT-29),GI50 (OVCAR-8),GI50 (MOLT-4),GI50 (SK-MEL-5),GI50 (ACHN),GI50 (SF-539),GI50 (A549),GI50 (U-251),GI50 (IGROV-1),GI50 (SR)
Cc1ccc(NC(=O)/C(=N/N(C)C)C(C2OC(=O)c3ccccc32)[N+](=O)[O-])cc1 (stereo not given),> 100 µM (inactive),> 100 µM (inactive),> 100 µM (inactive),> 100 µM (inactive),> 100 µM (inactive),> 100 µM (inactive),> 100 µM (inactive),> 100 µM (inactive),> 100 µM (inactive),> 100 µM (inactive),> 100 µM (inactive),> 100 µM (inactive),> 100 µM (inactive),> 100 µM (inactive),> 100 µM (inactive),> 100 µM (inactive),> 100 µM (inactive),–,–
CCOC(=O)C1(C/C=C/CBr)CCc2ccccc2C1=O (stereo not given),15.1 µM (inactive),14.5 µM (inactive),16.2 µM (inactive),–,15.1 µM (inactive),–,–,6.03 µM (inactive),30.8 µM (inactive),21.9 µM (inactive),15.7 µM (inactive),9.1 µM (inactive),12 µM (inactive),13.6 µM (inactive),18.1 µM (inactive),14 µM (inactive),14.1 µM (inactive),11.1 µM (inactive),–
C[C@]12CC/C(=N\O)C=C1CC[C@@H]1[C@@H]2CC[C@]2(C)C(=N/O)/C(=C/c3cccnc3)C[C@@H]12,–,31.8 µM (inactive),18.7 µM (inactive),1.74 µM (inactive),12.2 µM (inactive),3.46 µM (inactive),12.8 µM (inactive),–,3.63 µM (inactive),19 µM (inactive),15.4 µM (inactive),0.546 µM (active),–,16.8 µM (inactive),25.2 µM (inactive),13.1 µM (inactive),22.6 µM (inactive),30.4 µM (inactive),–
N#Cc1ccc(C2SCc3nc4ccccc4n32)cc1 (stereo not given),> 100 µM (inactive),> 100 µM (inactive),98.6 µM (inactive),49.8 µM (inactive),75 µM (inactive),> 100 µM (inactive),–,10.5 µM (inactive),–,–,76.9 µM (inactive),63.1 µM (inactive),32.7 µM (inactive),63.8 µM (inactive),84.7 µM (inactive),81.8 µM (inactive),> 100 µM (inactive),79.4 µM (inactive),–
Cc1ccc(S(=O)(=O)n2c3c(c4ccccc42)CCN2C[C@H]([C@H](C)Br)CC[C@@H]32)cc1,> 100 µM (inactive),> 100 µM (inactive),> 100 µM (inactive),13.1 µM (inactive),–,> 100 µM (inactive),> 100 µM (inactive),> 100 µM (inactive),–,> 100 µM (inactive),> 100 µM (inactive),67.1 µM (inactive),29.2 µM (inactive),> 100 µM (inactive),> 100 µM (inactive),> 100 µM (inactive),> 100 µM (inactive),> 100 µM (inactive),4.01 µM (inactive)
COC(=O)C1(O)C(c2ccccc2)NC2(C)CCCC21 (stereo not given),> 100 µM (inactive),> 100 µM (inactive),> 100 µM (inactive),–,> 100 µM (inactive),–,–,> 100 µM (inactive),> 100 µM (inactive),–,> 100 µM (inactive),> 100 µM (inactive),> 100 µM (inactive),> 100 µM (inactive),> 100 µM (inactive),> 100 µM (inactive),> 100 µM (inactive),> 100 µM (inactive),–
CCSc1[nH]c(NC(=S)NC(=O)c2ccccc2Cl)c(C(N)=O)c1C(N)=O,> 10 µM (inactive),> 10 µM (inactive),> 10 µM (inactive),> 10 µM (inactive),> 10 µM (inactive),–,> 10 µM (inactive),4.2 µM (inactive),–,> 10 µM (inactive),> 10 µM (inactive),> 10 µM (inactive),> 10 µM (inactive),–,–,> 10 µM (inactive),–,> 10 µM (inactive),> 10 µM (inactive)
COc1c(-c2ccc3c(c2)OCO3)oc2cc3c(c(OC)c2c1=O)OCO3 [MELITERNATIN],23.8 µM (inactive),25.1 µM (inactive),15.4 µM (inactive),–,16 µM (inactive),14.4 µM (inactive),15.3 µM (inactive),28.5 µM (inactive),31.1 µM (inactive),23.3 µM (inactive),19.1 µM (inactive),> 100 µM (inactive),18.4 µM (inactive),22.3 µM (inactive),16.3 µM (inactive),20.2 µM (inactive),16.6 µM (inactive),18.7 µM (inactive),–
Cc1c(C(=O)O)n(C)c(=O)n(C)c1=O,> 100 µM (inactive),> 100 µM (inactive),> 100 µM (inactive),–,> 100 µM (inactive),> 100 µM (inactive),> 100 µM (inactive),> 100 µM (inactive),–,> 100 µM (inactive),> 100 µM (inactive),> 100 µM (inactive),> 100 µM (inactive),> 100 µM (inactive),> 100 µM (inactive),> 100 µM (inactive),> 100 µM (inactive),> 100 µM (inactive),–
